PMC6691788, “Design and synthesis of phthalazine-based compounds as potent anticancer agents with potential antiangiogenic activity via VEGFR-2 inhibition” (Journal of Enzyme Inhibition and Medicinal Chemistry, 2019)
“Also recorded” adds a separate entry of the source.

Columns and labels:
A498 = assay: NCI 60 cell panel SRB screen; assay type: cell-based; details: Homo sapiens
SK-MEL-2 = assay: NCI 60 cell panel SRB screen; assay type: cell-based
NCI/ADR-RES = assay: NCI 60 cell panel SRB screen; assay type: cell-based; details: Homo sapiens
NCI-H322M = assay: NCI 60 cell panel SRB screen; assay type: cell-based; details: Homo sapiens
UO-31 = assay: NCI 60 cell panel SRB screen; assay type: cell-based; details: Homo sapiens
SF-539 = assay: NCI 60 cell panel SRB screen; assay type: cell-based, human
COLO 205 = assay: NCI 60 cell panel SRB screen; assay type: cell-based; details: Homo sapiens
full NCI 60 cell panel = assay: NCI 60 cell panel SRB screen, whole panel; assay type: cell-based, human
HT29 = assay: NCI 60 cell panel SRB screen; assay type: cell-based; details: Homo sapiens, HT-29
M14 = assay: NCI 60 cell panel SRB screen; assay type: cell-based; details: Homo sapiens
HOP-92 = assay: NCI 60 cell panel SRB screen; assay type: cell-based; details: Homo sapiens
SF-268 = assay: NCI 60 cell panel SRB screen; assay type: cell-based; details: Homo sapiens
HCT-116 cells [1] = assay: Annexin V-FITC/PI apoptosis detection; assay type: cell-based; details: HCT-116, at GI50, 24 h and 48 h
From the text: To further investigate the ability of compounds (7b, 13c and 16a) to induce apoptosis, an Annexin V (conjugated to FITC) apoptosis detection kit was employed. This assay detects phosphatidylserine (PS) expressed on the surface of apoptotic cells and fluoresces green after interacting with the labelled Annexin V. During early apoptosis, membrane asymmetry is lost, and PS translocates from the cytoplasmic side of the membrane to the external leaflet. Propidium iodide (PI), the counter stain used in this assay, has the ability to cross only compromised membranes to intercalate into the DNA. Therefore, PI is used to detect the late stages of apoptosis by the presence of red fluorescence.
Apoptosis was determined by staining cells with Annexin V–fluorescein isothiocyanate (FITC) and counterstaining with propidium iodide (PI) using the Annexin V–FITC/PI apoptosis detection kit (BD PharMingen, San Diego, CA, USA) according to the manufacturer's instructions. […] The cells then were collected by trypsinization and 0.5 × 10^6 cells were washed twice with phosphate-buffered saline (PBS) and stained with 5 μl Annexin V–FITC and 5 μl PI in 1× binding buffer (BD PharMingen) for 15 minutes at room temperature in the dark. Analyses were performed using FACS Calibur flow cytometer (BD Biosciences, San Jose, CA).

LOX IMVI = assay: NCI 60 cell panel SRB screen; assay type: cell-based; details: Homo sapiens
HCT-116 cells [2] = assay: Cell-cycle analysis by flow cytometry; assay type: cell-based; details: HCT-116, at GI50 concentration (1.20 µM), 24 h and 48 h
Description: The cells then were collected by trypsinization, washed with phosphate buffered saline (PBS), and fixed in ice-cold absolute alcohol. Thereafter, cells were stained, using Cycletest^TM Plus DNA Reagent Kit (BD Biosciences, San Jose, CA), according to the manufacturer’s instructions. Cell cycle distribution was determined using a FACS Calibur flow cytometer (BD Biosciences, San Jose, CA).

MCF7 = assay: NCI 60 cell panel SRB screen; assay type: cell-based; details: Homo sapiens
DU-145 = assay: NCI 60 cell panel SRB screen; assay type: cell-based; details: Homo sapiens
OVCAR-8 = assay: NCI 60 cell panel SRB screen; assay type: cell-based; details: Homo sapiens
EKVX = assay: NCI 60 cell panel SRB screen; assay type: cell-based, human
SF-295 = assay: NCI 60 cell panel SRB screen; assay type: cell-based; details: Homo sapiens
[3] = 5 log dose, 48 h, read-out: LC50 (the source's name)
[4] = single dose 10 μM, read-out: percent cell growth promotion
[5] = Homo sapiens, SF-539, 5 log dose

SMILES: Clc1ccc(Nc2nnc(CNc3ccccc3)c3ccccc23)cc1 [Compound 16a, N-(4-Chlorophenyl)-4-((phenylamino)methyl)phthalazin-1-amine]
- GI50 (A498; A498, 5 log dose): 1.45 µM
- IC (TGI) (A498; A498, 5 log dose): 6.6 µM
- CC50 (A498; A498, 5 log dose, 48 h, read-out: LC50 (the source's name)): 17.6 µM
- activity at 10 µM (A498; A498, single dose 10 μM, read-out: percent cell growth promotion): 24.7%
- GI50 (SK-MEL-2; Homo sapiens): 2.16 µM
- IC (TGI) (SK-MEL-2; Homo sapiens, read-out: TGI): 5.83 µM
- CC50 (SK-MEL-2; Homo sapiens, SK-MEL-2, 5 log dose, 48 h, read-out: LC50 (the source's name)): 14.5 µM
- percent cell growth promotion (SK-MEL-2; SK-MEL-2, single dose 10 μM): 8.63%
- GI50 (NCI/ADR-RES; 5 log dose): 4.12 µM
- IC (TGI) (NCI/ADR-RES; 5 log dose): 17 µM
- CC50 (NCI/ADR-RES; [3]): > 25 µM
- activity at 10 µM (NCI/ADR-RES; [4]): 18.8%
- GI50 (NCI-H322M; 5 log dose): 3.54 µM
- IC (TGI) (NCI-H322M; 5 log dose): 18.3 µM
- CC50 (NCI-H322M; [3]): > 25 µM
- activity at 10 µM (NCI-H322M; [4]): 30.4%
- GI50 (UO-31; UO-31, 5 log dose): 1.36 µM
- IC (TGI) (UO-31; UO-31, 5 log dose): 6.66 µM
- CC50 (UO-31; UO-31, 5 log dose, 48 h, read-out: LC50 (the source's name)): 23.8 µM
- activity at 10 µM (UO-31; UO-31, single dose 10 μM, read-out: percent cell growth promotion): 1.91%
- GI50 (SF-539; [5]): 3.67 µM
- IC (TGI) (SF-539; [5]): 8.1 µM
- CC50 (SF-539; Homo sapiens, SF-539, 5 log dose, 48 h, read-out: LC50 (the source's name)): 17.8 µM
- percent cell growth promotion (SF-539; SF-539, single dose 10 μM): 33.99%
- GI50 (COLO 205; COLO 205, 5 log dose): 0.91 µM
- IC (TGI) (COLO 205; COLO 205, 5 log dose): 5.39 µM
- CC50 (COLO 205; COLO 205, 5 log dose, 48 h, read-out: LC50 (the source's name)): 20.5 µM
- activity at 10 µM (COLO 205; COLO 205, single dose 10 μM, read-out: percent cell growth promotion): 11.9%
- GI50 (full NCI 60 cell panel; Homo sapiens, 60 cell, NCI 5-log dose, full 60 cell panel, read-out: GI50 values, range over the tested cell lines): 0.15 to 8.41 µM
- sensitivity in the 5 log dose assay, in words (full NCI 60 cell panel; NCI 5 log dose): insensitive to prostate and MCF-7 breast cancer cell lines
- GI50 (HT29; HT29, 5 log dose): 1.46 µM
- IC (TGI) (HT29; HT29, 5 log dose): 6.36 µM
- CC50 (HT29; HT29, 5 log dose, 48 h, read-out: LC50 (the source's name)): 21.2 µM
- activity at 10 µM (HT29; HT29, single dose 10 μM, read-out: percent cell growth promotion): 0.55%
- GI50 (M14; M14): 1.74 µM
- IC (TGI) (M14; M14, read-out: TGI): 6.65 µM
- activity at 10 µM (M14; M14, read-out: percent cell growth promotion): 5.8%
- CC50 (M14; M14, 5 log dose, 48 h, read-out: LC50 (the source's name)): 20.6 µM
- GI50 (HOP-92; HOP-92, 5 log dose): 0.77 µM
- IC (TGI) (HOP-92; HOP-92, 5 log dose): 6.29 µM
- CC50 (HOP-92; HOP-92, 5 log dose, 48 h, read-out: LC50 (the source's name)): > 25 µM
- activity at 10 µM (HOP-92; HOP-92, single dose 10 μM, read-out: percent cell growth promotion): -19.4%
- GI50 (SF-268; SF-268, 5 log dose): 3.28 µM
- IC (TGI) (SF-268; SF-268, 5 log dose): 14.5 µM
- CC50 (SF-268; SF-268, 5 log dose, 48 h, read-out: LC50 (the source's name)): > 25 µM
- activity at 10 µM (SF-268; SF-268, single dose 10 μM, read-out: percent cell growth promotion): 20.9%
- induction of apoptosis (Annexin-V positive cells), in words (HCT-116 cells [1]): increased the percentage of Annexin-V positive cells in lower right quadrant indicating early apoptosis
- GI50 (LOX IMVI): 1.57 µM
- CC50 (LOX IMVI; [3]): 11.4 µM
- IC (TGI) (LOX IMVI; read-out: TGI): 4.97 µM
- activity at 10 µM (LOX IMVI; read-out: percent cell growth promotion): 12.1%
- effect on cell-cycle progression (HCT-116 cells [2]): induce cell cycle arrest at S phase boundary; also recorded: significant action at both S phase and sub-G1 cell population
- IC (TGI) (MCF7; MCF7, read-out: TGI): 11.1 µM
- activity at 10 µM (MCF7; MCF7, read-out: percent cell growth promotion): 9.2%
- CC50 (MCF7; MCF7, 5 log dose, 48 h, read-out: LC50 (the source's name)): > 25 µM
- GI50 (DU-145; DU-145, 5 log dose): > 25 µM
- IC (TGI) (DU-145; DU-145, 5 log dose): > 25 µM
- CC50 (DU-145; DU-145, 5 log dose, 48 h, read-out: LC50 (the source's name)): > 25 µM
- activity at 10 µM (DU-145; DU-145, single dose 10 μM, read-out: percent cell growth promotion): 19%
- GI50 (OVCAR-8; OVCAR-8, 5 log dose): 4.63 µM
- IC (TGI) (OVCAR-8; OVCAR-8, 5 log dose): 16.8 µM
- CC50 (OVCAR-8; OVCAR-8, 5 log dose, 48 h, read-out: LC50 (the source's name)): > 25 µM
- activity at 10 µM (OVCAR-8; OVCAR-8, single dose 10 μM, read-out: percent cell growth promotion): 18.2%
- GI50 (EKVX; Homo sapiens, 5 log dose): 1.61 µM
- IC (TGI) (EKVX; Homo sapiens, 5 log dose): 15 µM
- LC50 (EKVX; Homo sapiens, 5 log dose, 48 h): > 25 µM
- percent cell growth promotion (EKVX; single dose 10 μM): 16.86%
- GI50 (SF-295; SF-295, 5 log dose): 2.98 µM
- IC (TGI) (SF-295; SF-295, 5 log dose): 8.77 µM
- CC50 (SF-295; SF-295, 5 log dose, 48 h, read-out: LC50 (the source's name)): > 25 µM
- activity at 10 µM (SF-295; SF-295, single dose 10 μM, read-out: percent cell growth promotion): 14.3%
